# Assay results reported in patent publication US20090074815A1, “Immunomodulator Compounds as Vaccine Enhancers” (SCICLONE PHARMACEUTICALS, INC., priority 2005, published 2009).
# Tested on: IL-2 production by OvA-stimulated splenocytes
# Experiment: OvA-stimulated production of IL-2 by splenocytes of OvA-immunized mice
# [1] = OvA/Alum, 0.1 μg/kg i/p, OvA 10 μg/ml
# [2] = OvA/Alum, 0.1 μg/kg i/p, OvA 25 μg/ml
# [3] = OvA/Alum, 0.1 μg/kg i/p, OvA 100 μg/ml
# [4] = OvA/Alum, 1.0 μg/kg i/p, OvA 1 μg/ml
# [5] = OvA/Alum, 1.0 μg/kg i/p, OvA 10 μg/ml
# [6] = OvA/Alum, 1.0 μg/kg i/p, OvA 25 μg/ml
# [7] = OvA/Alum, 1.0 μg/kg i/p, OvA 100 μg/ml
# [8] = OvA/FA, 0.1 μg/kg i/p, OvA 1 μg/ml
# [9] = OvA/FA, 0.1 μg/kg i/p, OvA 10 μg/ml
# [10] = OvA/FA, 0.1 μg/kg i/p, OvA 25 μg/ml
# [11] = OvA/FA, 0.1 μg/kg i/p, OvA 100 μg/ml
# [12] = OvA/FA, 1.0 μg/kg i/p, OvA 1 μg/ml
# [13] = OvA/FA, 1.0 μg/kg i/p, OvA 10 μg/ml
# [14] = OvA/FA, 1.0 μg/kg i/p, OvA 25 μg/ml
# [15] = OvA/FA, 1.0 μg/kg i/p, OvA 100 μg/ml
# Procedure: The OvA was administered subcutaneously to the crest in a volume of 200 μl. Mice were immunized on day 1 with OvA in complete Freund's adjuvant (CFA; Sigma) and on day 15 with the antigen in incomplete Freund's adjuvant (IFA; Sigma). The immune response was analyzed on day 29. Mice were also immunized with 10 μg/mouse of OvA using Alum as an adjuvant.
# Thymuses and spleens from mice of each treatment group were pooled, and then minced with scissors. The minced tissues were suspended in sterile PBS to form cell suspensions, filtered through a double gauze layer and centrifuged. Cells were washed twice with PBS, re-suspended in RPMI-1640 (Sigma) with 2.0 mM of L-glutamine, 50 μM of mercaptoethanol, and 10 μg/ml of gentamycin (complete medium); and cell counts were made. (The splenocyte suspension was washed with a 0.86% solution of NH4Cl to pre-lyse erthrocytes.)
# Assessment of Mitogen- and Antigen-Induced Production of Cytokines: Thymic cells (1×10^6/well) in complete medium with 2% FCS were stimulated with ConA (0, 1, and 2 μg/ml). Splenocytes (1×10^6/well) in complete medium with 5% FCS were stimulated with ConA (0, 1, and 5 μg/ml) and with OvA (0-100 μg/ml). […] Supernatants from OvA-stimulated cultures were collected after 72 hours. Supernatants from both cultures were frozen, and kept at 20° C. Concentrations of IL-2, IL-4, IL-10, IL-12R40 and IFNγ in the supernatants were determined by solid-phase EIA with EIA Expansion Kits, available from BD Biosciences (formerly Pharmingen), in accordance with the manufacturer's instructions.
smiles,measurement,setting,value
"N[C@H](CCC(=O)N[C@@H](Cc1c[nH]c2ccccc12)C(=O)O)C(=O)O [SCV-07, γ-D-glutamyl-L-tryptophan]","Production of IL-2 by splenocytes, % (% of control)","OvA/Alum, 0.1 μg/kg i/p, OvA 1 μg/ml",116.7%
same,Production of IL-2 by splenocytes,[1],87.5 pg/mL
same,"Production of IL-2 by splenocytes, % (% of control)",[1],53.7%
same,Production of IL-2 by splenocytes,[2],83.5 pg/mL
same,"Production of IL-2 by splenocytes, % (% of control)",[2],51.2%
same,Production of IL-2 by splenocytes,[3],84.8 pg/mL
same,"Production of IL-2 by splenocytes, % (% of control)",[3],52.0%
same,Production of IL-2 by splenocytes,"OvA/Alum, 0.1 μg/kg per os, OvA 0 μg/ml",172.9 pg/mL
same,Production of IL-2 by splenocytes,"OvA/Alum, 0.1 μg/kg per os, OvA 1 μg/ml",163.0 pg/mL
same,Production of IL-2 by splenocytes,"OvA/Alum, 0.1 μg/kg per os, OvA 10 μg/ml",124.5 pg/mL
same,Production of IL-2 by splenocytes,"OvA/Alum, 0.1 μg/kg per os, OvA 25 μg/ml",255.5 pg/mL
same,Production of IL-2 by splenocytes,"OvA/Alum, 0.1 μg/kg per os, OvA 100 μg/ml",90.8 pg/mL
same,Production of IL-2 by splenocytes,"OvA/Alum, 1.0 μg/kg i/p, OvA 0 μg/ml",113.4 pg/mL
same,Production of IL-2 by splenocytes,[4],173.7 pg/mL
same,"Production of IL-2 by splenocytes, % (% of control)",[4],153.2%
same,Production of IL-2 by splenocytes,[5],167.9 pg/mL
same,"Production of IL-2 by splenocytes, % (% of control)",[5],148.1%
same,Production of IL-2 by splenocytes,[6],353.8 pg/mL
same,"Production of IL-2 by splenocytes, % (% of control)",[6],312.0%
same,Production of IL-2 by splenocytes,[7],205.8 pg/mL
same,"Production of IL-2 by splenocytes, % (% of control)",[7],181.5%
same,Production of IL-2 by splenocytes,"OvA/Alum, 1.0 μg/kg per os, OvA 0 μg/ml",160.9 pg/mL
same,Production of IL-2 by splenocytes,"OvA/Alum, 1.0 μg/kg per os, OvA 1 μg/ml",92.8 pg/mL
same,Production of IL-2 by splenocytes,"OvA/Alum, 1.0 μg/kg per os, OvA 10 μg/ml",181.9 pg/mL
same,Production of IL-2 by splenocytes,"OvA/Alum, 1.0 μg/kg per os, OvA 25 μg/ml",121.3 pg/mL
same,Production of IL-2 by splenocytes,"OvA/Alum, 1.0 μg/kg per os, OvA 100 μg/ml",120.2 pg/mL
same,Production of IL-2 by splenocytes,"OvA/Alum, 10.0 μg/kg per os, OvA 0 μg/ml",289.4 pg/mL
same,Production of IL-2 by splenocytes,"OvA/Alum, 10.0 μg/kg per os, OvA 1 μg/ml",551.9 pg/mL
same,Production of IL-2 by splenocytes,"OvA/Alum, 10.0 μg/kg per os, OvA 10 μg/ml",252.5 pg/mL
same,Production of IL-2 by splenocytes,"OvA/Alum, 10.0 μg/kg per os, OvA 25 μg/ml",218.7 pg/mL
same,Production of IL-2 by splenocytes,"OvA/Alum, 10.0 μg/kg per os, OvA 100 μg/ml",300.8 pg/mL
same,Production of IL-2 by splenocytes,"OvA/FA, 0.1 μg/kg i/p, OvA 0 μg/ml",78.4 pg/mL
same,Production of IL-2 by splenocytes,[8],10.2 pg/mL
same,"Production of IL-2 by splenocytes, % (% of control)",[8],13.0%
same,Production of IL-2 by splenocytes,[9],72.7 pg/mL
same,"Production of IL-2 by splenocytes, % (% of control)",[9],92.7%
same,Production of IL-2 by splenocytes,[10],85.8 pg/mL
same,"Production of IL-2 by splenocytes, % (% of control)",[10],109.4%
same,Production of IL-2 by splenocytes,[11],95.5 pg/mL
same,"Production of IL-2 by splenocytes, % (% of control)",[11],121.8%
same,Production of IL-2 by splenocytes,"OvA/FA, 0.1 μg/kg per os, OvA 0 μg/ml",211.8 pg/mL
same,Production of IL-2 by splenocytes,"OvA/FA, 0.1 μg/kg per os, OvA 1 μg/ml",68.7 pg/mL
same,Production of IL-2 by splenocytes,"OvA/FA, 0.1 μg/kg per os, OvA 10 μg/ml",92.9 pg/mL
same,Production of IL-2 by splenocytes,"OvA/FA, 0.1 μg/kg per os, OvA 25 μg/ml",252.5 pg/mL
same,Production of IL-2 by splenocytes,"OvA/FA, 0.1 μg/kg per os, OvA 100 μg/ml",94.8 pg/mL
same,Production of IL-2 by splenocytes,"OvA/FA, 1.0 μg/kg i/p, OvA 0 μg/ml",147.7 pg/mL
same,Production of IL-2 by splenocytes,[12],116.5 pg/mL
same,"Production of IL-2 by splenocytes, % (% of control)",[12],78.9%
same,Production of IL-2 by splenocytes,[13],317.3 pg/mL
same,"Production of IL-2 by splenocytes, % (% of control)",[13],214.8%
same,Production of IL-2 by splenocytes,[14],363.1 pg/mL
same,"Production of IL-2 by splenocytes, % (% of control)",[14],245.8%
same,Production of IL-2 by splenocytes,[15],564.4 pg/mL
same,"Production of IL-2 by splenocytes, % (% of control)",[15],382.1%
same,Production of IL-2 by splenocytes,"OvA/FA, 1.0 μg/kg per os, OvA 0 μg/ml",122.4 pg/mL
same,Production of IL-2 by splenocytes,"OvA/FA, 1.0 μg/kg per os, OvA 1 μg/ml",82.7 pg/mL
same,Production of IL-2 by splenocytes,"OvA/FA, 1.0 μg/kg per os, OvA 10 μg/ml",304.2 pg/mL
same,Production of IL-2 by splenocytes,"OvA/FA, 1.0 μg/kg per os, OvA 25 μg/ml",152.9 pg/mL
same,Production of IL-2 by splenocytes,"OvA/FA, 1.0 μg/kg per os, OvA 100 μg/ml",282.8 pg/mL
same,Production of IL-2 by splenocytes,"OvA/FA, 10.0 μg/kg per os, OvA 0 μg/ml",163 pg/mL
same,Production of IL-2 by splenocytes,"OvA/FA, 10.0 μg/kg per os, OvA 1 μg/ml",80.2 pg/mL
same,Production of IL-2 by splenocytes,"OvA/FA, 10.0 μg/kg per os, OvA 10 μg/ml",305.4 pg/mL
same,Production of IL-2 by splenocytes,"OvA/FA, 10.0 μg/kg per os, OvA 25 μg/ml",287.2 pg/mL
same,Production of IL-2 by splenocytes,"OvA/FA, 10.0 μg/kg per os, OvA 100 μg/ml",478.2 pg/mL
